Measurements taken from patent US20140039044A1, “Hydroxylated Polymethoxyflavone Compositions” (WLLGEN, INC., priority 2006, published 2014).
Like-named read-outs stand apart in the source and are kept apart here.

Key:
HL-60 cells [1] = test: Cell cycle distribution by flow cytometry; type: cell-based, human; settings: 24 h; for Cell Cycle Distribution G0/G1 / Cell Cycle Distribution G2/M / Cell Cycle Distribution S: Table 10
In short: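 HL-60 cells were treated for 24 h with compound at 5, 10, 25, 50 or 100 μM, or with DMSO. Cells were then ethanol-fixed, treated with Triton X-100/RNase and stained with propidium iodide. DNA content was measured by flow cytometry to give cell-cycle phase distribution.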

HT-29 cells [2] = test: Apoptotic ratio by propidium iodide flow cytometry (AC50); type: cell-based, human; settings: Homo sapiens, read-out: Apoptosis-inducing AC50
In short: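 HT-29 cells (2×10^5) were treated with compound for 24 h, then fixed in ice-cold ethanol overnight and treated with Triton X-100/RNase at 37 °C for 30 min. They were stained with propidium iodide (50 μg/mL solution) on ice for 30 min. The apoptotic fraction was measured from PI-DNA fluorescence by flow cytometry, and AC50 was reported.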

HL-60 cells [3] = test: as above; type: cell-based, human; settings: Homo sapiens
In short: (§1)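 AC50 denotes the concentration that induces 50% apoptosis. It was derived from propidium iodide–DNA fluorescence measured by flow cytometry after ethanol fixation and RNase treatment. Cells were seeded at 2×10^5, grown 24 h, then exposed to test compounds for 24 h.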

COLO205 cells = test: as above; type: cell-based, human; settings: Homo sapiens
In short: as §1

AGS cells = test: as above; type: cell-based, human; settings: Homo sapiens, read-out: Apoptosis-inducing AC50
In short: as §1

[4] = tested on: LPS-induced nitrite production in RAW 264.7 macrophages; test: Nitrite assay (Griess reaction); type: cell-based, mouse; settings: 100 ng/ml LPS, PMF 30 μM, 24 h, FIG. 3
Method: Compounds or compositions were tested for anti-inflammatory effects by monitoring nitrite production in LPS-activated RAW264.7 cells. After treating the cells with LPS or LPS and test substance, supernatants were harvested and the amount of nitrite, an indicator of NO synthesis, was measured by use of the Griess reaction. Briefly, supernatants (100 μl) were mixed with the same volume of Griess reagent (1% sulphanilamide in 5% phosphoric acid and 0.1% naphthylethylenediamine dihydrochloride in water) in duplicate on 96-well plates. After incubation at room temperature for 10 min, absorbance at 570 nm was measured with a ELISA reader (Thermo Labsystems Multiskan Ascent, Finland).
The anti-inflammatory effects of compounds A-K were tested by measuring nitrite production in LPS-activated RAW 264.7 macrophages, as described in Section 8.4 above. Macrophages were treated with 100 ng/ml LPS alone or LPS and PMF (10 or 30 μM) for 24 h. At the end of incubation time, 100 μl of the culture medium was collected for the nitrite assay.

HT-29 cells [5] = test: Cell cycle distribution by flow cytometry; type: cell-based, human; settings: for Cell Cycle Distribution G0/G1 / Cell Cycle Distribution G2/M / Cell Cycle Distribution S: 24 h; for Cell cycle arrest, in words: 5-100 μM, 24 h exposure
In short: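 Cells were treated 24 h with compound at 5, 10, 25, 50 or 100 μM, or with DMSO. They were then ethanol-fixed, RNase-treated and stained with propidium iodide. DNA content was measured by FACScan flow cytometry to give cell-cycle phase distribution.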

[6] = HL-60, read-out: Apoptosis-inducing AC50
[7] = COLO 205, read-out: Apoptosis-inducing AC50

| Structure (SMILES) | Cell Cycle Distribution G0/G1 (HL-60 cells [1]; 5 μM) | Cell Cycle Distribution G2/M (HL-60 cells [1]; 5 μM) | Cell Cycle Distribution S (HL-60 cells [1]; 5 μM) | Cell Cycle Distribution G0/G1 (HL-60 cells [1]; 10 μM) | Cell Cycle Distribution G2/M (HL-60 cells [1]; 10 μM) | Cell Cycle Distribution S (HL-60 cells [1]; 10 μM) | Cell Cycle Distribution G0/G1 (HL-60 cells [1]; 25 μM) | Cell Cycle Distribution G2/M (HL-60 cells [1]; 25 μM) | Cell Cycle Distribution S (HL-60 cells [1]; 25 μM) | Cell Cycle Distribution G0/G1 (HL-60 cells [1]; 50 μM) | Cell Cycle Distribution G2/M (HL-60 cells [1]; 50 μM) | Cell Cycle Distribution S (HL-60 cells [1]; 50 μM) | Cell Cycle Distribution G0/G1 (HL-60 cells [1]; 100 μM) | Cell Cycle Distribution G2/M (HL-60 cells [1]; 100 μM) | Cell Cycle Distribution S (HL-60 cells [1]; 100 μM) | AC50 (HT-29 cells [2]) [µM] | Rank of inhibitory potency on LPS-induced nitrite production [4] | Cell Cycle Distribution G0/G1 (HT-29 cells [5]; 5 μM) | Cell Cycle Distribution G2/M (HT-29 cells [5]; 5 μM) | Cell Cycle Distribution S (HT-29 cells [5]; 5 μM) | other results |
| --- | --- | --- | --- | --- | --- | --- | --- | --- | --- | --- | --- | --- | --- | --- | --- | --- | --- | --- | --- | --- | --- |
| COc1ccc(-c2cc(=O)c3c(OC)c(OC)c(OC)c(OC)c3o2)cc1O [I, 3′-hydroxy-5,6,7,8,4′-pentamethoxyflavone] | 44.51 ± 2.37 | 9.23 ± 0.16 | 46.27 ± 2.21 | 43.22 ± 1.85 | 11.92 ± 0.64 | 44.86 ± 2.49 | 50.55 ± 0.97 | 10.75 ± 0.41 | 38.71 ± 1.38 | 50.23 ± 1.94 | 6.36 ± 1.69 | 43.41 ± 3.62 | 65.54 ± 4.07 | 13.24 ± 11.61 | 21.31 ± 15.55 | > 100 | H>G>K>C>I>B | 60.78 ± 1.52 | 7.95 ± 0.71 | 31.28 ± 0.81 | AC50 (HL-60 cells [3]; [6]): 94.6 ± 1.5 µM; AC50 (COLO205 cells; [7]): > 100 µM; AC50 (AGS cells; AGS): > 100 µM; Cell Cycle Distribution G0/G1 (HT-29 cells [5]; 10 μM): 61.09 ± 1.06; Cell Cycle Distribution G2/M (HT-29 cells [5]; 10 μM): 7.89 ± 0.23; Cell Cycle Distribution S (HT-29 cells [5]; 10 μM): 31.02 ± 1.30; Cell Cycle Distribution G0/G1 (HT-29 cells [5]; 25 μM): 60.90 ± 0.87; Cell Cycle Distribution G2/M (HT-29 cells [5]; 25 μM): 7.48 ± 0.64; Cell Cycle Distribution S (HT-29 cells [5]; 25 μM): 31.63 ± 0.23; Cell Cycle Distribution G0/G1 (HT-29 cells [5]; 50 μM): 66.36 ± 0.88; Cell Cycle Distribution G2/M (HT-29 cells [5]; 50 μM): 9.83 ± 0.61; Cell Cycle Distribution S (HT-29 cells [5]; 50 μM): 23.81 ± 0.28; Cell Cycle Distribution G0/G1 (HT-29 cells [5]; 100 μM): 74.18 ± 2.33; Cell Cycle Distribution G2/M (HT-29 cells [5]; 100 μM): 0.37 ± 0.40; Cell Cycle Distribution S (HT-29 cells [5]; 100 μM): 25.45 ± 2.72; Cell cycle arrest, in words (HT-29 cells [5]): significant accumulation of cells in G1 phase |
| COc1c(OC)c(OC)c2c(=O)cc(-c3ccc(O)c(O)c3)oc2c1OC [H, 3′,4′-dihydroxy-5,6,7,8-tetramethoxyflavone] | 49.78 ± 1.80 | 4.37 ± 5.00 | 45.85 ± 6.80 | 49.29 ± 1.53 | 2.76 ± 3.90 | 47.95 ± 5.43 | 52.82 ± 0.15 | 5.49 ± 1.11 | 41.68 ± 0.93 | 62.04 ± 1.19 | 10.70 ± 0.89 | 27.27 ± 0.31 | 61.15 ± 7.03 | 25.94 ± 8.32 | 12.91 ± 15.34 | > 100 | H>G>K>C>I>B | 63.21 ± 1.82 | 7.53 ± 0.81 | 29.26 ± 2.63 | Cell cycle arrest, in words (HL-60 cells [1]; 25-100 μM): significant G1 arrest; AC50 (HL-60 cells [3]; [6]): > 100 µM; AC50 (COLO205 cells; [7]): > 100 µM; AC50 (AGS cells; AGS): > 100 µM; Cell Cycle Distribution G0/G1 (HT-29 cells [5]; 10 μM): 64.87 ± 0.74; Cell Cycle Distribution G2/M (HT-29 cells [5]; 10 μM): 8.19 ± 0.09; Cell Cycle Distribution S (HT-29 cells [5]; 10 μM): 26.95 ± 0.64; Cell Cycle Distribution G0/G1 (HT-29 cells [5]; 25 μM): 63.87 ± 0.92; Cell Cycle Distribution G2/M (HT-29 cells [5]; 25 μM): 8.45 ± 0.46; Cell Cycle Distribution S (HT-29 cells [5]; 25 μM): 27.68 ± 1.37; Cell Cycle Distribution G0/G1 (HT-29 cells [5]; 50 μM): 63.10 ± 0.16; Cell Cycle Distribution G2/M (HT-29 cells [5]; 50 μM): 7.94 ± 0.84; Cell Cycle Distribution S (HT-29 cells [5]; 50 μM): 28.98 ± 0.69; Cell Cycle Distribution G0/G1 (HT-29 cells [5]; 100 μM): 61.66 ± 1.44; Cell Cycle Distribution G2/M (HT-29 cells [5]; 100 μM): 4.98 ± 1.55; Cell Cycle Distribution S (HT-29 cells [5]; 100 μM): 33.37 ± 0.11 |
| COc1ccc(-c2oc3c(OC)c(OC)c(OC)c(O)c3c(=O)c2OC)cc1OC [Compound C, 5-hydroxy-3,6,7,8,3′,4′-hexamethoxyflavone] | 70.99 ± 0.49 | 0.95 ± 0.35 | 28.07 ± 0.99 | 78.47 ± 0.64 | 19.89 ± 1.06 | 1.64 ± 0.42 | 40.12 ± 0.64 | 20.37 ± 0.57 | 39.51 ± 0.57 | 51.42 ± 1.13 | 11.64 ± 1.06 | 36.94 ± 0.85 | 50.23 ± 1.91 | 18.74 ± 1.56 | 31.03 ± 1.06 | > 100 | H>G>K>C>I>B | 65.24 ± 0.32 | 7.62 ± 0.11 | 27.15 ± 0.21 | Cell cycle arrest, in words (HL-60 cells [1]; 25 μM): decrease in G1 arrest was accompanied by an increase in G2/M phase cell population; Cell cycle arrest, in words (HL-60 cells [1]; 25-100 μM): significant G1 arrest; AC50 (HL-60 cells [3]; HL-60 cells, read-out: Apoptosis-inducing AC50): 63.65 ± 0.61 µM; AC50 (COLO205 cells; COLO 205, COLO205 cells, read-out: Apoptosis-inducing AC50): > 100 µM; AC50 (AGS cells; AGS cells): 18.9 ± 0.41 µM; Cell Cycle Distribution G0/G1 (HT-29 cells [5]; 10 μM): 69.14 ± 0.14; Cell Cycle Distribution G2/M (HT-29 cells [5]; 10 μM): 6.58 ± 0.18; Cell Cycle Distribution S (HT-29 cells [5]; 10 μM): 24.28 ± 0.32; Cell Cycle Distribution G0/G1 (HT-29 cells [5]; 25 μM): 80.09 ± 0.19; Cell Cycle Distribution G2/M (HT-29 cells [5]; 25 μM): 4.39 ± 0.37; Cell Cycle Distribution S (HT-29 cells [5]; 25 μM): 15.54 ± 0.19; Cell Cycle Distribution G0/G1 (HT-29 cells [5]; 50 μM): 69.85 ± 0.66; Cell Cycle Distribution G2/M (HT-29 cells [5]; 50 μM): 5.91 ± 0.49; Cell Cycle Distribution S (HT-29 cells [5]; 50 μM): 24.25 ± 1.15; Cell Cycle Distribution G0/G1 (HT-29 cells [5]; 100 μM): 77.48 ± 0.74; Cell Cycle Distribution G2/M (HT-29 cells [5]; 100 μM): 3.94 ± 1.32; Cell Cycle Distribution S (HT-29 cells [5]; 100 μM): 18.59 ± 0.58; Cell cycle arrest, in words (HT-29 cells [5]): significant accumulation of cells in G1 phase |
